Measurements as given in patent US20260069693A1, “UROLITHINS AND T-CELL MEDIATED IMMUNE RESPONSE” (priority 2022, published 2026).

How the values were obtained:
T cells = assay: immunoblot, cell fractionation and immunofluorescence of stimulated T cells; format: cell-based, mice
Description: Activated T cells were incubated on Poly-L-lysine coated coverslips for 10 min at 37° C. and then fixed with 4% PFA for 10 min, followed by permeabilization with 0.25% Triton X-100 for 10 mins. Staining for Pgam5 was performed as previously described (Yamaguchi et al., 2019), using rabbit Anti-Pgam5 antibody (ab126534, Abcam). Immune complexes were detected with 1:200-diluted anti-rabbit IgG Alexa Fluor 488 (Thermo Fisher). Nuclei were counterstained with a DAPI-containing liquid […] mountant (ProLong™ Gold Antifade Mountant, Thermo Fisher). Mitochondria were stained with 200 nM Mitotracker Red for 45 min Image were acquired by confocal microscopy.
5×10^6 isolated T cells were stimulated on cell-culture plates coated with 1:200 α-CD3 (145-2C11; 100339; BioLegend) and α-CD28 (37.51; 102115, Biolegend) for the indicated time points. After centrifugation for 5 mins at 1500 rpm, cell pellets were resuspended in complete protein lysis buffer (50 mM Tris pH 7.5, 250 mM sodium chloride, 30 mM EDTA, 25 mM sodium pyrophosphate, 1% Triton-X 100, 0.5% NP-40, 10% glycerol and 1 mM DTT) supplemented with protease and phosphatase inhibitors (Roche). When subcellular location of Pgam5 was studied, a cell fractionation kit (Abcam, Ab109719) was used according to the manufacturer's instructions. Fractionation and whole-cell lysates were snap frozen and stored at −80° C. until further analysis. Collected lysates were mixed with 10% β-mercaptoethanol Laemmli buffer and denatured for 10 min at 70° C. Equal amounts of protein as assessed by Bradford measurement (Pierce™ Coomassie Plus (Bradford) Assay Reagent, ThermoFisher) were subjected to 10-15% SDS-PAGE, then transferred to […] PVDF membranes (MeckMillipore). Membranes were blocked for 30 mins in PBS-T/5% milk or PBST-T/5% BSA prior to antibody incubation overnight with the following antibodies: β-Actin (Sigma; #A4700), Gapdh (Santacruz; sc32233), Parkin (Santacruz; sc32283), Phospho-β-Catenin (CellSignaling; 9561), TOM20 (CellSignaling; D84TN; 42406S); pStat1 (Cellsignaling; 9167) and PGAM5 (Abcam; ab126534). Afterwards, membranes were incubated for one hour with their respective HRP-conjugated secondary antibodies (Santacruz: sc2314 and sc2313), followed by development using SuperSignal West Pico Chemoluminescence Substrate (ThermoFischer Scientific). 2D densitometry was performed using ImageJ Software (National Institutes of Health, Bethesda, Maryland).

CD19-CAR T cells = format: cell-based, human
[1] = system: CEA-expressing human CRC organoids; assay: CEA-CAR T cell killing of CRC organoids; format: cell-based; settings: 72 h co-culture, UA vs DMSO
Description: In human CRC organoids, CEA-expression was confirmed by flow cytometry […]CEACAM5-APC (487609; FAB41281A; R&D Systems) Before co-culture, CEA-CAR T cells were cultivated in presence or absence of UA for three days. The cytotoxicity assay was performed as described (Schnalzger et al., 2019), using 96 well plates coated with 15 μl Cultrex Basement Membrane Extract, Type 2 per well and organoids were seeded at a ratio of 1:8. Co-culture was performed for three days with 0.5×10^4 CAR T cells per well resuspended in organoid medium (as described above) without IL7/IL15. 100 μl luciferase assay reagent composed of 10% One-Glo EX Reagent (Promega) in lysis buffer (50 mM NaCl, 50 mM Tris-HCl pH 7.4, 1% Triton X-100) was added to each well and incubated at room temperature for 1 h protected from light. 100 μl of each sample was transferred to an opaque 96-well microtiter plate and measured using a SpectraMax iD3 microplate reader (Molecular Devices).

C. elegans = settings: cited from earlier work

O=c1oc2cc(O)ccc2c2ccc(O)cc12 [UA, Urolithin A]
phosphorylation of Stat1 (T cells; UA treated T cells compared to vehicle controls): equal phosphorylation
Parkin protein expression (T cells; immunoblot, 24 h, UA 50 μM): stabilized
b-catenin phosphorylation (T cells; immunoblot, after 6 hours, UA 50 μM): marked decrease
Pgam5 localization (T cells; sub-cellular fractionations and immunofluorescence, 6 h, UA 50 μM): rapidly released into the cytoplasma
gene delivery into CD8+ cells (CD19-CAR T cells): did not impair
Markers of exhaustion of CAR T cells (CD19-CAR T cells; UA supplementation): not affected
CAR expressing TSCM cells (CD19-CAR T cells; three days post transduction, UA vs DMSO): markedly increased
CAR expressing TSCM cells, share of CD8+ cells (CD19-CAR T cells; three days post transduction, upon UA exposure): about 60%
killing efficacy of CEA-expressing human CRC organoids [1]: comparable killing efficacy
lifespan (C. elegans): prolonged lifespan
mitochondrial content (C. elegans): higher mitochondrial content
